Laboratory results published in paper PMC6407579, “New flavonoid – N,N-dibenzyl(N-methyl)amine hybrids: Multi-target-directed agents for Alzheimer´s disease endowed with neurogenic properties” (Journal of Enzyme Inhibition and Medicinal Chemistry, 2019).
Several values for one entry are separate records, joined by “and”; a condition that tells them apart may be missing. Equal entries are not always repeated.

How the values were obtained:
[1] = target: T1, human recombinant AChE (hAChE) (Homo sapiens, UniProt P22303); test: biochemical; details: mean ± SEM (n = 3); read-out: hAChE IC50
T1 construct: purchased Sigma Chemical Co
T1 sequence (P22303 32-614): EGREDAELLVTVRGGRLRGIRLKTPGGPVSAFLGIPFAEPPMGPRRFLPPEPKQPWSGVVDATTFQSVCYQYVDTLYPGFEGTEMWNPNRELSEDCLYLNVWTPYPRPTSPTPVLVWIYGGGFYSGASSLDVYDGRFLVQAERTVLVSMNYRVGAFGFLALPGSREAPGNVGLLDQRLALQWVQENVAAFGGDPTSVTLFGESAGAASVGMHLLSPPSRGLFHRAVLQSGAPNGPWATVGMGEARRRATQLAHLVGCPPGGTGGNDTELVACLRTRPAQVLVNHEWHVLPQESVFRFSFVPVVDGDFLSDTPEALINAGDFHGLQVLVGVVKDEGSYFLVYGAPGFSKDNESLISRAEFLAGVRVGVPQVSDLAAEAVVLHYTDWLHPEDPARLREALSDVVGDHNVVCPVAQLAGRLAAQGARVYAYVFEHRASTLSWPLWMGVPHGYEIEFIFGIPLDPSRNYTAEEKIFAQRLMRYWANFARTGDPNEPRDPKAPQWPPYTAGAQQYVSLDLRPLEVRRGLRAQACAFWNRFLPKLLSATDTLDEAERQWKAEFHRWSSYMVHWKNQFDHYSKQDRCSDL
Description: The Ellman method was followed, using human recombinant AChE and BuChE from human serum. The assay solution consisted of 0.1 M phosphate buffer pH 8.0, 400 μM 5,5´-dithiobis(2-nitrobenzoic acid) (DTNB, Ellman’s reagent), 0.05 U/mL hAChE (Sigma Chemical Co.) or 0.024 U/mL hBuChE (Sigma Chemical Co.), and 800 μM acetylthiocholine iodide, or 500 μM butyrylthiocholine as the substrate of the enzymatic reaction, respectively. The compounds tested were added to the assay solution and preincubated with the enzyme for 5 min at 30 °C. After that period, the substrate was added.

recombinant hMAO-A = target: T2, recombinant hMAO-A (Homo sapiens, UniProt P21397); test: biochemical; type: biochemical
T2 sequence (P21397 1-527): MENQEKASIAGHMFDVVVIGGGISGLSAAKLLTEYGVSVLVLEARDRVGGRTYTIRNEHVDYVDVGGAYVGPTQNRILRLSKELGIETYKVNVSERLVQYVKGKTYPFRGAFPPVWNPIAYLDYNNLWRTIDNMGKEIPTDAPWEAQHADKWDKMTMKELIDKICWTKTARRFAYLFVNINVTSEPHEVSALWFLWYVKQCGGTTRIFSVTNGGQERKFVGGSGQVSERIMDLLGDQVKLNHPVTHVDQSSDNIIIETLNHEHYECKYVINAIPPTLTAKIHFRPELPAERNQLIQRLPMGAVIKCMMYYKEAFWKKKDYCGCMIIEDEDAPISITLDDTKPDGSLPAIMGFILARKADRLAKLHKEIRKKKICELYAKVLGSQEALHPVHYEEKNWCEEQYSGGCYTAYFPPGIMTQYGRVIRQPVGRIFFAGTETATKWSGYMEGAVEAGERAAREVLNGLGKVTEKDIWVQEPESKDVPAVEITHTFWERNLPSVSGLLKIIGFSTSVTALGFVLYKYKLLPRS

recombinant hMAO-B = target: T3, recombinant hMAO-B (Homo sapiens, UniProt P27338); test: biochemical; type: biochemical; details: mean ± SEM (n = 3); 100 µM highest concentration tested
T3 sequence (P27338 1-520): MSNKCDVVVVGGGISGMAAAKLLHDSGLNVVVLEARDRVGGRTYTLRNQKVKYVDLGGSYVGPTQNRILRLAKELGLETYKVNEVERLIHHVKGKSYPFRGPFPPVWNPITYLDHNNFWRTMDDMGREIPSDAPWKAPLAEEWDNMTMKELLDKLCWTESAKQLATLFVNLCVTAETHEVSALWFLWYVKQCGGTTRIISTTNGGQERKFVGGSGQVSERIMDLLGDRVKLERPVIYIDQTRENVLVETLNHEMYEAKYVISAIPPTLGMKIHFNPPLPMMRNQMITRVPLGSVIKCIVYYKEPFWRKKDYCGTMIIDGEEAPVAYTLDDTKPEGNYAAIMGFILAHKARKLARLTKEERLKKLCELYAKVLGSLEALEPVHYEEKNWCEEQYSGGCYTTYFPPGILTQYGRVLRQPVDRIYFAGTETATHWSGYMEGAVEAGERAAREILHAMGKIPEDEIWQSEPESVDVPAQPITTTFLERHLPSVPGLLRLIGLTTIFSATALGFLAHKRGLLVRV

[2] = Oxygen radical absorbance capacity assay (ORAC); details: trolox taken as 1.0
[3] = In vitro blood-brain barrier permeation assay (PAMPA-BBB); type: in vitro ADME; details: pig, pH 7.4, porcine brain lipid, PBS:ethanol (70:30), 25 °C, read-out: PAMPA-BBB permeability in the CNS (Pe)
Description: Prediction of the brain penetration was evaluated using a parallel artificial membrane permeation assay (PAMPA-BBB), in a similar manner as previously described[36]^,[46]^,[51–53]. Pipetting was performed with a semi-automatic pipettor (CyBi®-SELMA) and UV reading with a microplate spectrophotometer (Multiskan Spectrum, Thermo Electron Co.). Commercial drugs, phosphate buffered saline solution at pH 7.4 (PBS), and dodecane were purchased from Sigma, Aldrich, Acros, and Fluka. Millex filter units (PVDF membrane, diameter 25 mm, pore size 0.45 μm) were acquired from Millipore. The porcine brain lipid (PBL) was obtained from Avanti Polar Lipids. The donor microplate was a 96-well filter plate (PVDF membrane, pore size 0.45 μm) and the acceptor microplate was an indented 96-well plate, both from Millipore. The acceptor 96-well microplate was filled with 200 μL of PBS: ethanol (70:30) and the filter surface of the donor microplate was impregnated with 5 μL of porcine brain lipid (PBL) in dodecane (20 mg mL^−1). Compounds were dissolved in PBS: ethanol (70:30) at 100 μg mL^−1, filtered through a Millex filter, and then added to the donor wells (200 μL). The donor filter plate was carefully put on the acceptor plate to form a sandwich, which was left undisturbed for 120 min at 25 °C. After incubation, the donor plate is carefully removed and the concentration of compounds in the acceptor wells was determined by UV-Vis spectroscopy. Every sample is analysed at five wavelengths, in four wells and at least in three independent runs, and the results are given as the mean ± standard deviation. In each experiment, 11 quality control standards of known BBB permeability were included to validate and normalise the analysis set.
To check if new compounds could be able to reach their CNS-targets, we used the in vitro parallel artificial membrane permeability assay for the blood-brain barrier (PAMPA-BBB) described by Di et al.[87], and partially modified by us for testing molecules with limited water-solubility[36]^,[46]^,[51–53]. The passive CNS-permeation of new compounds 1–13 through a lipid extract of porcine brain was measured at room temperature. In each experiment, 11 commercial drugs of known brain permeability were also tested and their permeability values normalised to the reported PAMPA-BBB data. […].

σ1R = target: T4, σ1R (Cavia porcellus, UniProt Q60492); test: Sigma-1 receptor binding, [3H]-(+)-pentazocine competition; set-up: species or system guinea pig
T4 construct: the thawed membrane preparation of guinea pig brain cortex; from tissue; host or cells: guinea pig brain cortex membranes
T4 sequence (Q60492 whole entry): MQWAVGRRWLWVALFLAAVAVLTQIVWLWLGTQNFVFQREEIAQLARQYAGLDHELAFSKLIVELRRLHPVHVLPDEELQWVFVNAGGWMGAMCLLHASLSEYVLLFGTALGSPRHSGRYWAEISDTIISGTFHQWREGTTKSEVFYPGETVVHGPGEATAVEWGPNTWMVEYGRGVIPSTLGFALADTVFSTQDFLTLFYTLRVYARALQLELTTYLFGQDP

σ2R = target: T5, σ2R (Rattus norvegicus, UniProt Q5U3Y7); test: Sigma-2 receptor binding, [3H]-DTG competition
T5 construct: 150 µg of rat liver homogenate were incubated; from tissue; host or cells: rat liver homogenate
T5 sequence (Q5U3Y7 1-176): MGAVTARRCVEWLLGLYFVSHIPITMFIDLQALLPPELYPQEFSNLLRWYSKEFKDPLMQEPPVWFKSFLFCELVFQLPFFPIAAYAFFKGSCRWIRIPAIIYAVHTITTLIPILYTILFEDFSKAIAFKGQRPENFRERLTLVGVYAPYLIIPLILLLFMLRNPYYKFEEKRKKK

[4] = tested on: Aβ levels in cerebrospinal fluid; set-up: method as in PMID 29719179; details: cited from earlier work

## CN(Cc1ccccc1)Cc1ccc(NC(=O)c2cc(=O)c3c(O)cc(O)cc3o2)cc1 [Compound 4, N-(4-((Benzyl(methyl)amino)methyl)phenyl)-5,7-dihydroxy-4-oxo-4H-chromene-2-carboxamide]
[1]
  IC50: 1900 ± 600 nM
Recombinant hMAO-A
  preference for hMAO-A compared to hMAO-B: at least 4.4 times
Recombinant hMAO-A; mean ± SEM (n = 3), 100 µM highest concentration tested
  IC50: 22800 ± 1500 nM
Recombinant hMAO-B
  IC50: > 100000 nM
[2]
  ORAC, trolox equivalents: 1.2 mmol of trolox/mmol of tested compound and 1.2 ± 0.1 mmol of trolox/mmol of tested compound
[3]
  Papp at 120 min, 100 μg mL^−1: 14.7 ± 1.2 ×10⁻⁶ cm/s
σ1R
  Ki: 510 ± 70 nM
  Selectivity vs. σ1R (Kiσ2R/Kiσ1R): > 5.9
σ2R
  Ki: > 3000 nM

## CN1C(=N)N[C@](C)(c2cc(NC(=O)c3ccc(F)cn3)ccc2F)CS1(=O)=O [verubecestat]
[4]
  reduction of Aβ levels in cerebrospinal fluid: up to 81%
